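GI50 marks 50% less growth. Definition used: TGI = concentration required for complete inhibition of growth.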
Experiments:
Test in all cases: NCI-60 cell line screen, 384-well format
BT-549 breast = test system: BT-549 breast
HCT-15 colon = test system: HCT-15 colon
MDA-MB-468 breast = test system: MDA-MB-468 breast
NCI-H226 lung = test system: NCI-H226 lung
SW-620 colon = test system: SW-620 colon
RXF 393 renal = test system: RXF 393 renal
ACHN renal = test system: ACHN renal
SK-MEL-5 melanoma = test system: SK-MEL-5 melanoma
HOP-92 NSCLC = test system: HOP-92 NSCLC
MCF7 breast = test system: MCF7 breast
SK-MEL-28 melanoma = test system: SK-MEL-28 melanoma
SNB-75 CNS = test system: SNB-75 CNS
NCI/ADR-RES ovarian = test system: NCI/ADR-RES ovarian
PC-3 prostate = test system: PC-3 prostate
SF-268 CNS = test system: SF-268 CNS
HCT-116 colon = test system: HCT-116 colon
MDA-MB-435 melanoma = test system: MDA-MB-435 melanoma
CAKI-1 renal = test system: CAKI-1 renal
NCI-H322M lung = test system: NCI-H322M lung
SF-539 CNS = test system: SF-539 CNS
EKVX NSCLC = test system: EKVX NSCLC
COLO 205 colon = test system: COLO 205 colon
NCI-H522 lung = test system: NCI-H522 lung
HS 578T breast = test system: HS 578T breast
OVCAR-4 ovarian = test system: OVCAR-4 ovarian
NCI-H23 lung = test system: NCI-H23 lung
HT29 colon = test system: HT29 colon
RPMI-8226 leukemia = test system: RPMI-8226 leukemia
HOP-62 NSCLC = test system: HOP-62 NSCLC
OVCAR-8 ovarian = test system: OVCAR-8 ovarian
TK-10 renal = test system: TK-10 renal
SN12C renal = test system: SN12C renal
A498 renal = test system: A498 renal
IGROV1 ovarian = test system: IGROV1 ovarian
SF-295 CNS = test system: SF-295 CNS
MOLT-4 leukemia = test system: MOLT-4 leukemia
NCI-H460 NSCLC = test system: NCI-H460 NSCLC
MALME-3M melanoma = test system: MALME-3M melanoma
SK-MEL-2 melanoma = test system: SK-MEL-2 melanoma
LOX IMVI melanoma = test system: LOX IMVI melanoma
DU-145 prostate = test system: DU-145 prostate
U251 glioblastoma = test system: U251 glioblastoma
OVCAR-3 ovarian = test system: OVCAR-3 ovarian
786-0 renal = test system: 786-0 renal
KM12 colon = test system: KM12 colon
M14 melanoma = test system: M14 melanoma
UACC-62 melanoma = test system: UACC-62 melanoma
CCRF-CEM leukemia = test system: CCRF-CEM leukemia
SNB-19 CNS = test system: SNB-19 CNS
HCC-2998 colon = test system: HCC-2998 colon
K-562 leukemia = test system: K-562 leukemia
HL-60(TB) leukemia = test system: HL-60(TB) leukemia
A549 NSCLC = test system: A549 NSCLC
SK-OV-3 ovarian = test system: SK-OV-3 ovarian
UACC-257 melanoma = test system: UACC-257 melanoma

CN(C)C(=O)c1ccc(SC(=S)NCc2ccccc2)cc1
GI50 (BT-549 breast): 2390 nM
TGI (BT-549 breast): 4.6 µM
GI50 (HCT-15 colon): 1900 nM
TGI (HCT-15 colon): 3.53 µM
GI50 (MDA-MB-468 breast): 701 nM
TGI (MDA-MB-468 breast): 1330 nM
GI50 (NCI-H226 lung): 2630 nM
TGI (NCI-H226 lung): 6.33 µM
GI50 (SW-620 colon): 2870 nM
TGI (SW-620 colon): 10.1 µM
GI50 (RXF 393 renal): 1830 nM
TGI (RXF 393 renal): 3.34 µM
GI50 (ACHN renal): 3.24 µM
TGI (ACHN renal): 8.66 µM
GI50 (SK-MEL-5 melanoma): 1910 nM
TGI (SK-MEL-5 melanoma): 3.38 µM
GI50 (HOP-92 NSCLC): 2720 nM
TGI (HOP-92 NSCLC): 7.17 µM
GI50 (MCF7 breast): 2360 nM
TGI (MCF7 breast): 10.6 µM
GI50 (SK-MEL-28 melanoma): 2520 nM
TGI (SK-MEL-28 melanoma): 4.91 µM
GI50 (SNB-75 CNS): 4.09 µM
TGI (SNB-75 CNS): 7.63 µM
GI50 (NCI/ADR-RES ovarian): 2960 nM
TGI (NCI/ADR-RES ovarian): 6.23 µM
GI50 (PC-3 prostate): 3.64 µM
TGI (PC-3 prostate): 9.17 µM
GI50 (SF-268 CNS): 3.83 µM
TGI (SF-268 CNS): 10.8 µM
GI50 (HCT-116 colon): 3.51 µM
TGI (HCT-116 colon): 8.81 µM
GI50 (MDA-MB-435 melanoma): 2230 nM
TGI (MDA-MB-435 melanoma): 5.21 µM
GI50 (CAKI-1 renal): 2920 nM
TGI (CAKI-1 renal): 9.76 µM
GI50 (NCI-H322M lung): 5.05 µM
TGI (NCI-H322M lung): 15.7 µM
GI50 (SF-539 CNS): 1770 nM
TGI (SF-539 CNS): 3.29 µM
GI50 (EKVX NSCLC): 13.4 µM
TGI (EKVX NSCLC): 26.3 µM
GI50 (COLO 205 colon): 4.72 µM
TGI (COLO 205 colon): 15.1 µM
GI50 (NCI-H522 lung): 3.18 µM
TGI (NCI-H522 lung): 7.34 µM
GI50 (HS 578T breast): 2770 nM
TGI (HS 578T breast): 5.81 µM
GI50 (OVCAR-4 ovarian): 15.7 µM
TGI (OVCAR-4 ovarian): 29.2 µM
GI50 (NCI-H23 lung): 3.17 µM
TGI (NCI-H23 lung): 8.36 µM
GI50 (HT29 colon): 1800 nM
TGI (HT29 colon): 3.25 µM
GI50 (RPMI-8226 leukemia): 458 nM
TGI (RPMI-8226 leukemia): 1220 nM
GI50 (HOP-62 NSCLC): 1900 nM
TGI (HOP-62 NSCLC): 3.87 µM
GI50 (OVCAR-8 ovarian): 2150 nM
TGI (OVCAR-8 ovarian): 4.31 µM
GI50 (TK-10 renal): 2870 nM
TGI (TK-10 renal): 6.13 µM
GI50 (SN12C renal): 2450 nM
TGI (SN12C renal): 6.12 µM
GI50 (A498 renal): 3.78 µM
TGI (A498 renal): 10.3 µM
GI50 (IGROV1 ovarian): 2480 nM
TGI (IGROV1 ovarian): 6.77 µM
GI50 (SF-295 CNS): 12.1 µM
TGI (SF-295 CNS): 24.6 µM
GI50 (MOLT-4 leukemia): 1640 nM
TGI (MOLT-4 leukemia): 3.09 µM
GI50 (NCI-H460 NSCLC): 2730 nM
TGI (NCI-H460 NSCLC): 6.45 µM
GI50 (MALME-3M melanoma): 3.15 µM
TGI (MALME-3M melanoma): 5.52 µM
GI50 (SK-MEL-2 melanoma): 1540 nM
TGI (SK-MEL-2 melanoma): 2980 nM
GI50 (LOX IMVI melanoma): 2070 nM
TGI (LOX IMVI melanoma): 4.09 µM
GI50 (DU-145 prostate): 5.09 µM
TGI (DU-145 prostate): 15 µM
GI50 (U251 glioblastoma): 3.55 µM
TGI (U251 glioblastoma): 9.29 µM
GI50 (OVCAR-3 ovarian): 3.8 µM
TGI (OVCAR-3 ovarian): 11.4 µM
GI50 ([…]-0 renal): 1990 nM
TGI (786-0 renal): 3.6 µM
GI50 (KM12 colon): 1670 nM
TGI (KM12 colon): 8.91 µM
GI50 (M14 melanoma): 2360 nM
TGI (M14 melanoma): 5.32 µM
GI50 (UACC-62 melanoma): 2090 nM
TGI (UACC-62 melanoma): 3.61 µM
GI50 (CCRF-CEM leukemia): 1630 nM
TGI (CCRF-CEM leukemia): 3.05 µM
GI50 (SNB-19 CNS): 3.37 µM
TGI (SNB-19 CNS): 9.21 µM
GI50 (HCC-2998 colon): 4.77 µM
TGI (HCC-2998 colon): 13.6 µM
GI50 (K-562 leukemia): 10.6 µM
TGI (K-562 leukemia): 22.5 µM
GI50 (HL-60(TB) leukemia): 364 nM
TGI (HL-60(TB) leukemia): 1150 nM
GI50 (A549 NSCLC): 7.98 µM
TGI (A549 NSCLC): 21 µM
GI50 (SK-OV-3 ovarian): 6.26 µM
TGI (SK-OV-3 ovarian): 18.1 µM
GI50 (UACC-257 melanoma): 2900 nM
TGI (UACC-257 melanoma): 5.66 µM

Source: PubChem BioAssay (NCI)
